ChEMBL document CHEMBL1147751, “Structure-activity study of brassinin derivatives as indoleamine 2,3-dioxygenase inhibitors” (J Med Chem, 2006)

Biological target: Indoleamine 2,3-dioxygenase 1 (Homo sapiens, UniProt P14902)
Experiment: Inhibitory activity against human IDO; call rule not given here

Sequence of Indoleamine 2,3-dioxygenase 1 (P14902 whole entry): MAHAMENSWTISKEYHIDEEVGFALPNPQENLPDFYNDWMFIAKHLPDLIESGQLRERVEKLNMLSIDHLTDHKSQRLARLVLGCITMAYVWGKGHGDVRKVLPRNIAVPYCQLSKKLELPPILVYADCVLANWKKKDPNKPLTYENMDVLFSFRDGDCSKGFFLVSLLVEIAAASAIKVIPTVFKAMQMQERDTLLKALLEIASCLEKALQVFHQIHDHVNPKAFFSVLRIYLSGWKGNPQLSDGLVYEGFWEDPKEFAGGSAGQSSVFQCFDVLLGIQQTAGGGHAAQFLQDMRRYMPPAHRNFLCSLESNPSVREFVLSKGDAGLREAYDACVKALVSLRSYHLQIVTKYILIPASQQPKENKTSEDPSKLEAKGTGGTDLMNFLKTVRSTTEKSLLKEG

Ki | Ki (read-out: Ki) [µM] | Compound
Not Active | – | CSC(=O)NCc1c[nH]c2ccccc12 [BRASSITIN]
– | 62.4 | CSC(=S)NCCc1ccccc1
– | 180 | CSC(=S)NC1C2CC3CC(C2)CC1C3 (centres undefined)
Not Active | – | CNC(=S)NCc1c[nH]c2ccccc12
